Experimental findings from ChEMBL document CHEMBL2074452, “Mercapturic acids (N-acetylcysteine S-conjugates) as endogenous substrates for the renal organic anion transporter-1” (Mol Pharmacol, 2001) are described below.

Data set [1] addresses T1, Solute carrier family 22 member 6 (Rattus norvegicus, UniProt O35956).
T1 sequence (O35956 whole entry): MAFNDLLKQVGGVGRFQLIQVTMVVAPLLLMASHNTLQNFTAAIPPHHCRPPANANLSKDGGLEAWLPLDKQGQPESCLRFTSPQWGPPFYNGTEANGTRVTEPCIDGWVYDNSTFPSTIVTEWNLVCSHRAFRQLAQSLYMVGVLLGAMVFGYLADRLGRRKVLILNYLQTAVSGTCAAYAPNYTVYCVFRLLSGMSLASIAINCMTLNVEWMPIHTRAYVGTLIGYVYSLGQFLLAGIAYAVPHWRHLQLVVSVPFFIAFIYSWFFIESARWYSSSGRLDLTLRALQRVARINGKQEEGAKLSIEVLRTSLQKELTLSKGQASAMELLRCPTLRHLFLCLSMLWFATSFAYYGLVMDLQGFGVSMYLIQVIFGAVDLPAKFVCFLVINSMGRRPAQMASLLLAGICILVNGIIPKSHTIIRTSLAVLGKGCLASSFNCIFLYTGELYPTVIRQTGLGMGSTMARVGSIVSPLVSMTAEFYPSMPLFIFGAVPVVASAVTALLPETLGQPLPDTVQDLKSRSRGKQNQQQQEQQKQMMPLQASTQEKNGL
The data set can be described thus: TP_TRANSPORTER: inhibition of DNP-NAC uptake (DNP-NAC: 1 uM, Allyl-NAC: 1000 uM) in Xenopus laevis oocytes. It counts as functional, cell-based. As to conditions: oocyte.

The target in data set [2] is T1, Solute carrier family 22 member 6. The experiment in a line: TP_TRANSPORTER: inhibition of PAH uptake (PAH: 20 uM, Allyl-NAC: 1000 uM) in Xenopus laevis oocytes. The data set is classed as functional, cell-based. To be noted: oocyte.
For data set [3] the target is unchanged. The data set can be described thus: TP_TRANSPORTER: inhibition of PAH uptake in Xenopus laevis oocytes. It counts as functional, cell-based, Oocyte.
Data set [4] shares this target. The data set can be described thus: TP_TRANSPORTER: inhibition of DNP-NAC uptake (DNP-NAC: 1 uM, Benzyl-NAC: 1000 uM) in Xenopus laevis oocytes. The data set is classed as functional, cell-based. To be noted: oocyte.
For data set [5] the target is unchanged. The experiment in a line: TP_TRANSPORTER: inhibition of DNP-NAC uptake (DNP-NAC: 1 uM, diCl-vinyl-NAC: 1000 uM) in Xenopus laevis oocytes. To be noted: oocyte. The data set is classed as functional, cell-based.
Data set [6] has the same target. The data set can be described thus: TP_TRANSPORTER: inhibition of PAH uptake (PAH: 20 uM, diCl-vinyl-NAC: 1000 uM) in Xenopus laevis oocytes. To be noted: oocyte. The data set is classed as functional, cell-based.
Data set [7] has the same target. The data set can be described thus: TP_TRANSPORTER: inhibition of PAH uptake (PAH: 20 uM, PentaCl-butadiene-NAC: 500 uM) in Xenopus laevis oocytes. The data set is classed as functional, cell-based. As to conditions: oocyte.
Data set [8] shares this target. The data set can be described thus: TP_TRANSPORTER: inhibition of DNP-NAC uptake (DNP-NAC: 1 uM, PentaCl-butadiene-NAC: 1000 uM) in Xenopus laevis oocytes. It counts as functional, cell-based. As to conditions: oocyte.
For data set [9] the target is unchanged. The experiment in a line: TP_TRANSPORTER: inhibition of DNP-NAC uptake (DNP-NAC: 1 uM, NAC: 1000 uM) in Xenopus laevis oocytes. It counts as functional, cell-based. To be noted: oocyte.
For data set [10] the target is unchanged. The experiment in a line: TP_TRANSPORTER: inhibition of DNP-NAC uptake (DNP-NAC: 1 uM, 3-Phenyl-propyl-NAC: 1000 uM) in Xenopus laevis oocytes. The data set is classed as functional, cell-based. To be noted: oocyte.
The target is the same in data set [11]. The data set can be described thus: TP_TRANSPORTER: inhibition of PAH uptake (PAH: 20 uM, 3-Phenyl-propyl-NAC: 1000 uM) in Xenopus laevis oocytes. The data set is classed as functional, cell-based. To be noted: oocyte.
Data set [12] has the same target. The experiment in a line: TP_TRANSPORTER: inhibition of PAH uptake (PAH: 20 uM, N-acetylnorleucine: 1000 uM) in Xenopus laevis oocytes. As to conditions: oocyte. The data set is classed as functional, cell-based.
The target is the same in data set [13]. The data set can be described thus: TP_TRANSPORTER: inhibition of DNP-NAC uptake (DNP-NAC: 1 uM, N-acetylnorleucine: 1000 uM) in Xenopus laevis oocytes. As to conditions: oocyte. The data set is classed as functional, cell-based.
Data set [14] shares this target. The data set can be described thus: TP_TRANSPORTER: inhibition of PAH uptake (PAH: 20 uM, Propanol-NAC: 1000 uM) in Xenopus laevis oocytes. To be noted: oocyte. It counts as functional, cell-based.
For data set [15] the target is unchanged. The data set can be described thus: TP_TRANSPORTER: inhibition of DNP-NAC uptake (DNP-NAC: 1 uM, Propanol-NAC: 1000 uM) in Xenopus laevis oocytes. The data set is classed as functional, cell-based. As to conditions: oocyte.
The target is the same in data set [16]. The experiment in a line: TP_TRANSPORTER: inhibition of PAH uptake (PAH: 20 uM, Propyl-NAC: 1000 uM) in Xenopus laevis oocytes. It counts as functional, cell-based. As to conditions: oocyte.
Data set [17] shares this target. The data set can be described thus: TP_TRANSPORTER: inhibition of DNP-NAC uptake (DNP-NAC: 1 uM, Butyl-NAC: 1000 uM) in Xenopus laevis oocytes. The data set is classed as functional, cell-based. To be noted: oocyte.
The target is the same in data set [18]. The experiment in a line: TP_TRANSPORTER: inhibition of DNP-NAC uptake (DNP-NAC: 1 uM, Propyl-NAC: 1000 uM) in Xenopus laevis oocytes. To be noted: oocyte. It counts as functional, cell-based.
For data set [19] the target is unchanged. The data set can be described thus: TP_TRANSPORTER: inhibition of PAH uptake (PAH: 20 uM, Butyl-NAC: 500 uM) in Xenopus laevis oocytes. The data set is classed as functional, cell-based. As to conditions: oocyte.
For data set [20] the target is unchanged. The data set can be described thus: TP_TRANSPORTER: inhibition of PAH uptake (PAH: 20 uM, Dodecyl-NAC: 500 uM) in Xenopus laevis oocytes. The data set is classed as functional, cell-based. To be noted: oocyte.
Data set [21] has the same target. The experiment in a line: TP_TRANSPORTER: inhibition of DNP-NAC uptake (DNP-NAC: 1 uM, Dodecyl-NAC: 1000 uM) in Xenopus laevis oocytes. To be noted: oocyte. The data set is classed as functional, cell-based.
Substrate in data set [22]: CC(=O)N[C@@H](CSc1ccc([N+](=O)[O-])cc1[N+](=O)[O-])C(=O)O
The data set can be described thus: TP_TRANSPORTER: uptake in Xenopus laevis oocytes. The data set is classed as functional, cell-based, Oocyte.

As for `C=CCSCC(NC(C)=O)C(=O)O` (stereo not given), the Activity result in data set [1] is “inhibitor [(at a rough estimate) 15 % of control]”; in data set [2], “inhibitor [(at a rough estimate) 10 % of control]”.

On to `COC(=O)[C@@H](CSCc1ccccc1)NC(C)=O`, for which the affinity in data set [3] corresponds to a Ki of 400 nM. Moreover, in data set [4], the Activity result was “inhibitor [(at a rough estimate) 30 % of control]”.

As for `CC(=O)N[C@@H](CS/C(Cl)=C\Cl)C(=O)O`, the Activity result in [5] was “inhibitor [(at a rough estimate) 25 % of control]”; in [6], “inhibitor [(at a rough estimate) 5 % of control]”.

As for `CC(=O)N[C@@H](CSc1ccc([N+](=O)[O-])cc1[N+](=O)[O-])C(=O)O`, in [3], the Ki (as a rule, the dissociation constant of the complex between target and ligand, obtained from inhibition or displacement) came to 1900 nM.

Turning to `CC(=O)NC(CS/C(Cl)=C(\Cl)C(Cl)=C(Cl)Cl)C(=O)O` (stereo not given), the Activity result was “inhibitor [(at a rough estimate) 15 % of control]” in [7] and “inhibitor [(at a rough estimate) <5 % of control]” in [8].

With `CC(=O)N[C@@H](CS)C(=O)O` [ACETYLCYSTEINE], the Activity entry in [9] is “inhibitor [(at a rough estimate) 60 % of control]”.

`CC(=O)NC(CSCCCc1ccccc1)C(=O)O` (stereo not given): the Activity result in data set [10] is “inhibitor [(at a rough estimate) 10 % of control]”; in data set [11] it was “inhibitor [(at a rough estimate) 5 % of control]”.

Molecule `CCSC[C@@H](NC(C)=O)C(=O)O` returned an inhibition constant (Ki) in data set [3] of 1100 nM. This lies in the single-digit micromolar range.

In the case of `CCCC[C@H](NC(C)=O)C(=O)O`, the figures for the Activity result in [12] and in data set [13] were “inhibitor [(at a rough estimate) 15 % of control]” and “inhibitor [(at a rough estimate) 35 % of control]”, respectively.

As to `CC(=O)NC(CSCCCO)C(=O)O` (stereo not given), the figures for the Activity result in [14] and in data set [15] were “inhibitor [(at a rough estimate) 5 % of control]” and “inhibitor [(at a rough estimate) 30 % of control]”, respectively.

`CCCCSCC(NC(C)=O)C(=O)O` (stereo not given): the Activity entry was “inhibitor [(at a rough estimate) 10 % of control]” in data set [16], “inhibitor [(at a rough estimate) 5 % of control]” in [17], “inhibitor [(at a rough estimate) 30 % of control]” in data set [18] and “inhibitor [(at a rough estimate) 5 % of control]” in [19].

With `CCCCCCCCCCCCSC[C@@H](NC(C)=O)C(=O)O`, the Activity entry is “inhibitor [(at a rough estimate) 15 % of control]” in [20] and “inhibitor [(at a rough estimate) <5 % of control]” in data set [21].

For `CCCCC/C=C\C\C=C/C=C/C=C/[C@@H](SC[C@H](NC(C)=O)C(=O)O)[C@@H](O)CCCC(=O)O`, the affinity in data set [3], expressed as Ki, was 9000 nM.

B1: Solute carrier family 22 member 6 (Rattus norvegicus) (protein)
chain: MAFNDLLKQVGGVGRFQLIQVTMVVAPLLLMASHNTLQNFTAAIPPHHCRPPANANLSKDGGLEAWLPLDKQGQPESCLRFTSPQWGPPFYNGTEANGTRVTEPCIDGWVYDNSTFPSTIVTEWNLVCSHRAFRQLAQSLYMVGVLLGAMVFGYLADRLGRRKVLILNYLQTAVSGTCAAYAPNYTVYCVFRLLSGMSLASIAINCMTLNVEWMPIHTRAYVGTLIGYVYSLGQFLLAGIAYAVPHWRHLQLVVSVPFFIAFIYSWFFIESARWYSSSGRLDLTLRALQRVARINGKQEEGAKLSIEVLRTSLQKELTLSKGQASAMELLRCPTLRHLFLCLSMLWFATSFAYYGLVMDLQGFGVSMYLIQVIFGAVDLPAKFVCFLVINSMGRRPAQMASLLLAGICILVNGIIPKSHTIIRTSLAVLGKGCLASSFNCIFLYTGELYPTVIRQTGLGMGSTMARVGSIVSPLVSMTAEFYPSMPLFIFGAVPVVASAVTALLPETLGQPLPDTVQDLKSRSRGKQNQQQQEQQKQMMPLQASTQEKNGL
Consider B1, for which, in data set [22], the Km (in general, the concentration of substrate that gives half-maximal velocity) was 2 µM.
